The source made the active and inactive calls. No rule for the calls is given here.

The test system of the data set is CCRIS mutagenicity, Ames/micronucleus/aberration tests. As to the kind of experiment: CCRIS mutagenicity studies.
Setting [1] is: Test System: AMES SALMONELLA TYPHIMURIUM, Strain/Indicator: TA98, Metabolic Activation: NONE, Method: PREINCUBATION
Setting [2] is: Test System: AMES SALMONELLA TYPHIMURIUM, Strain/Indicator: TA100, Metabolic Activation: NONE, Method: PREINCUBATION

Regarding `CC(Cl)(Cl)[N+](=O)[O-]`, the mutagenic call is “active; positive” (Test System: AMES SALMONELLA TYPHIMURIUM, Strain/Indicator: TA97, Metabolic Activation: HAMSTER, LIVER, S-9, AROCLOR 1254 (10%), Method: PREINCUBATION); “active; positive” (Test System: AMES SALMONELLA TYPHIMURIUM, Strain/Indicator: TA97, Metabolic Activation: NONE, Method: PREINCUBATION); “active; positive” (Test System: AMES SALMONELLA TYPHIMURIUM, Strain/Indicator: TA97, Metabolic Activation: RAT, LIVER, S-9, AROCLOR 1254 (10%), Method: PREINCUBATION); “inactive; negative” (Test System: AMES SALMONELLA TYPHIMURIUM, Strain/Indicator: TA98, Metabolic Activation: HAMSTER, LIVER, S-9, AROCLOR 1254 (10%), Method: PREINCUBATION); “inactive; negative” under setting [1]; “inactive; negative” (Test System: AMES SALMONELLA TYPHIMURIUM, Strain/Indicator: TA98, Metabolic Activation: RAT, LIVER, S-9, AROCLOR 1254 (10%), Method: PREINCUBATION). The mutagenic call is “active; positive” (Test System: AMES SALMONELLA TYPHIMURIUM, Strain/Indicator: TA100, Metabolic Activation: HAMSTER, LIVER, S-9, AROCLOR 1254 (10%), Method: PREINCUBATION); “inactive; negative” under setting [2]; “active; positive” (Test System: AMES SALMONELLA TYPHIMURIUM, Strain/Indicator: TA100, Metabolic Activation: RAT, LIVER, S-9, AROCLOR 1254 (10%), Method: PREINCUBATION); “inactive; negative” (Test System: AMES SALMONELLA TYPHIMURIUM, Strain/Indicator: TA1535, Metabolic Activation: HAMSTER, LIVER, S-9, AROCLOR 1254 (10%), Method: PREINCUBATION); “inactive; negative” (Test System: AMES SALMONELLA TYPHIMURIUM, Strain/Indicator: TA1535, Metabolic Activation: NONE, Method: PREINCUBATION); “inactive; negative” (Test System: AMES SALMONELLA TYPHIMURIUM, Strain/Indicator: TA1535, Metabolic Activation: RAT, LIVER, S-9, AROCLOR 1254 (10%), Method: PREINCUBATION).
Regarding `[O-][n+]1cc2ncccc2cn1`, the mutagenic call runs as follows: under setting [1], “inactive; negative”; (Test System: AMES SALMONELLA TYPHIMURIUM, Strain/Indicator: TA98, Metabolic Activation: RAT, LIVER, S-9, PCB, Method: PREINCUBATION) “inactive; negative”; under setting [2], “inactive; negative”; (Test System: AMES SALMONELLA TYPHIMURIUM, Strain/Indicator: TA100, Metabolic Activation: RAT, LIVER, S-9, PCB, Method: PREINCUBATION) “inactive; negative”.
Regarding `O.O.O.O.O.O.O.[Cl-].[Cl-].[Cl-].[Fe+3]`, the mutagenic call (Test System: AMES SALMONELLA TYPHIMURIUM, Strain/Indicator: TA102, Metabolic Activation: NONE, Method: STANDARD PLATE) was “inactive; negative”; the mutagenic call (Test System: Mouse lymphoma, Strain/Indicator: L5178Y (tk+/tk-), Metabolic Activation: None, Method: Suspension/plate) is “inactive; negative”; the mutagenic call (Test System: Mouse lymphoma, Strain/Indicator: L5178Y (tk+/tk-), Metabolic Activation: Rat, Liver, S-9, Aroclor 1254, Method: Suspension/plate) was “inactive; inconclusive (previous evaluation: negative)”.

(Values after PubChem BioAssay AID1259407 (Chemical Carcinogenesis Research Information System (CCRIS), 2018).)
